Laboratory results: patent publication US9206139B2, “Aggrecanase inhibitors” (Eli Lilly and Company, priority 2012, dated 2015)
pIC50: −log10 of the molar value.

Assays:
MMP13 = MMP13 (Homo sapiens (Human), UniProt P45452); assay: In vitro fluorescence assay of MMP13 activity; format: biochemical
Description: A continuous assay is used in which the substrate is a synthetic peptide containing a fluorescent group (7-methoxycoumarin, Mca), which is quenched by energy transfer to a 2,4-dinitrophenyl group. The substrate is the peptide Mca-PQGL-(3-[2,4-dinitrophenyl]-L-2,3-diaminopropionyl)-AR-OH. […] APMA is removed through a desalting column (MMP-2 Calbiochem® catalog number PF023). The assay buffer consists of 100 mM Tris-HCl (pH 7.5), 100 mM NaCl, 10 mM CaCl2 and 10 μM human serum albumin Each well of the 96-well plates consists of a 100 μL reaction mixture consisting of assay buffer, MMP (final concentration of 0.2 nM, prepared by diluting in assay buffer), and varied concentrations of inhibitor (prepared by serially diluting a given inhibitor in DMSO in a 96-well polypropylene plate using a 10 point or 11 point dilution scheme). The enzymatic reactions are initiated by adding the substrate to a final concentration of 20 μM. The final DMSO concentration in the assay is 1.0%.
(§1) The data is analyzed by using ActivityBase® software programs vs. 5.3 using a 4 parameter fit model equation 205 from which relative IC50's are generated. Maximum signal is calculated from wells untreated by inhibitor but having enzyme, substrate and 1.0% DMSO. Minimum signal is calculated from wells having buffer only (no enzyme), substrate, and 1.0% DMSO.
(§2) Essentially the same procedure is used for the remaining MMP assays as the MMP-2 assay, above, or as known in the art. For example, for MMP-14, the enzyme source is MMP-14 (MT1-MMP) catalytic domain produced by activation of a recombinant soluble proform of the enzyme purified from the periplasm. It consists of amino acid residues Tyr^89 to Gly^265 of mature human MT1-MMP (Calbiochem® catalog number 475935). The final concentration of each well is 0.5 nM instead of 0.2 nM as in MMP-2 assay.

[1] = molecular target: MMP-14 (MT1-MMP) catalytic domain (Homo sapiens (Human), UniProt P50281); assay: In vitro fluorescence assay of MMP-14 activity; format: biochemical; details: read-out: MMP14 IC50
Excerpt: (§3) A continuous assay is used in which the substrate is a synthetic peptide containing a fluorescent group (7-methoxycoumarin, Mca), which is quenched by energy transfer to a 2,4-dinitrophenyl group. The substrate is the peptide Mca-PQGL-(3-[2,4-dinitrophenyl]-L-2,3-diaminopropionyl)-AR-OH. When the peptide is cleaved by MMP a large increase in fluorescence is observed. The source of the enzyme for this assay is full-length, recombinant, human pro-MMP-2 expressed in Chinese Hamster Ovary (CHO) cells that is subsequently activated by an organomercurial compound, 4-aminophenyl mercuric acetate (APMA). APMA is removed through a desalting column (MMP-2 Calbiochem® catalog number PF023). The assay buffer consists of 100 mM Tris-HCl (pH 7.5), 100 mM NaCl, 10 mM CaCl2 and 10 μM human serum albumin Each well of the 96-well plates consists of a 100 μL reaction mixture consisting of assay buffer, MMP (final concentration of 0.2 nM, prepared by diluting in assay buffer), and varied concentrations of inhibitor (prepared by serially diluting a given inhibitor in DMSO in a 96-well polypropylene plate using a 10 point or 11 point dilution scheme). The enzymatic reactions are initiated by adding the substrate to a final concentration of 20 μM. The final DMSO concentration in the assay is 1.0%. The plate is incubated for 2-4 hours at room temperature and substrate cleavage is determined at room temperature with a fluorescence plate reader (excitation filter 320 and emission filter 436) on a LJL Analyst® or a Wallac Envision®.
as §1, §2

MMP3 = MMP3 (Homo sapiens (Human), UniProt P08254); assay: In vitro fluorescence assay of MMP3 activity; format: biochemical
Excerpt: as §3, §1, §2

MMP9 = MMP9 (Homo sapiens (Human), UniProt P14780); assay: In vitro fluorescence assay of MMP9 activity; format: biochemical
Excerpt: as §3, §1, §2

MMP12 = MMP12 (Homo sapiens (Human), UniProt P39900); assay: In vitro fluorescence assay of MMP12 activity; format: biochemical
Excerpt: as §3, §1, §2

[2] = test system: aggrecanase-cleaved fragments of aggrecan (NITEGE) in synovial lavage; assay: MIA injection PD model in rats; format: in vivo, Lewis rats; details: twice a day, rat
Description: MIA Injection PD Model in Rats
The assay as described in Swearingen et al., Osteoarthritis and Cartilage 18 (2010) 1159-1166, may be employed. MIA (Sigma, catalog #I2512, sodium salt) is prepared fresh on the day of use at 3 mg in 50 ul sterile 0.9% saline. 7-8-week-old male Lewis rats are anesthetized and injected intra-articularly with MIA into the right knee (to induce endogenous aggrecanase activity and the release of aggrecan fragments into the synovial fluid) and saline in the left (contralateral) knee on day 0. […] The synovial lavage is assayed for aggrecanase-cleaved fragments of aggrecan using the NITEGE sandwich ELISA. The amount of aggrecan fragments present in the synovial lavage is determined based on a standard curve generated with aggrecanase-digested rat aggrecan. Statistical analysis is performed using Dunnett's test. Sandwich ELISA assay: For the NITEGE ELISA, the a-NITEGE monoclonal antibody is immobilized on white high binding ELISA plates (Nunc) overnight at 4 C. Following blocking, rat synovial fluid lavage samples are added to the plate and fragments with a C-terminal NITEGE sequence are captured. The captured fragments are detected using the HRP-conjugated a-HABR monoclonal antibody. The ELISA signal is measured using the Supersignal ELISA femto maximum sensitivity substrate (Pierce) and read on a Victor luminometer. The amount of aggrecan fragments present in the sample is determined based on a standard curve generated with aggrecanase-digested rat chondrosarcoma aggrecan (850 mg/ml stock diluted in antibody dilution buffer).

MMP-2 = MMP-2 (Homo sapiens (Human), UniProt P08253); assay: In vitro fluorescence assay of MMP-2 activity; format: biochemical; details: read-out: MMP2 IC50
Excerpt: In Vitro Fluorescence Assay of MMP-2 Activity
as §3, §1

MMP7 = MMP7 (Homo sapiens (Human), UniProt P09237); assay: In vitro fluorescence assay of MMP7 activity; format: biochemical
Excerpt: as §3, §1, §2

MMP8 = MMP8 (Homo sapiens (Human), UniProt P22894); assay: In vitro fluorescence assay of MMP8 activity; format: biochemical
Excerpt: as §3, §1, §2

ADAMTS-4 = ADAMTS-4 (Homo sapiens (Human), UniProt O75173); assay: ADAMTS-4 AlphaScreen assay; format: biochemical; details: buffer
Description: ADAMTS-4 and ADAMTS-5 AlphaScreen Assay:
(§4) The plate is covered with aluminum foil tape and the binding is allowed to incubate overnight. The plate is then read on an AlphaScreen Fusion Alpha reader from Perkin Elmer. Data is analyzed using ActivityBase™ software (IDBS Alameda, Calif.). A similar assay is used with purified dog ADAMTS-4 enzyme.

dog ADAMTS-4 [3] = molecular target: T1, dog ADAMTS-4 (Canis lupus familiaris, UniProt A0A8I3Q3A2); assay: Dog ADAMTS-4 AlphaScreen assay; format: biochemical; details: purified dog ADAMTS-4 enzyme
Description: as §4

MMP1 = MMP1 (Homo sapiens (Human), UniProt P03956); assay: In vitro fluorescence assay of MMP1 activity; format: biochemical
Excerpt: as §3, §1, §2

[4] = Example 2 compound plasma concentration in osteoarthritis dogs (LC-MS/MS); format: in vivo, Beagle dogs
Excerpt: (§5) Blood samples for baseline plasma ARGN concentrations are collected from all dogs on 30, 28, and 26 days to prior to beginning dose administration. […] The 4 age matched control dogs without OA all are assigned to the placebo treatment group.

plasma ARGN = assay: Plasma biomarker ARGN in osteoarthritis dogs; format: in vivo, Beagle dogs; details: OA dogs
Excerpt: Study of the Plasma Biomarker ARGN in Osteoarthritis Dogs
The objective of this study is to determine the plasma biomarker ARGN response in osteoarthritic (OA) dogs to a compound of the invention across a range of doses following daily oral administration for 21 days. Sixteen (16) adult laboratory Beagle dogs ≧8 years of age with radiographic evidence of OA in the hip joint(s) and 4 age matched control Beagle dogs without OA are enrolled in the study.
as §5

dog ADAMTS-4 [5] = molecular target: T1, dog ADAMTS-4; assay: Dog plasma shift AlphaScreen assay; format: biochemical; details: dog ADAMTS-4 in 25% dog plasma
Description: Rat and Dog Plasma Shift AlphaScreen Assay
The assay is completed in the same manner using 10 nM ADAMTS-5 instead of 2.1 nM. A similar assay is used with dog ADAMTS-4 in the presence of 25% dog plasma.

Sequence of MMP9 (P14780 94-707, species assumed): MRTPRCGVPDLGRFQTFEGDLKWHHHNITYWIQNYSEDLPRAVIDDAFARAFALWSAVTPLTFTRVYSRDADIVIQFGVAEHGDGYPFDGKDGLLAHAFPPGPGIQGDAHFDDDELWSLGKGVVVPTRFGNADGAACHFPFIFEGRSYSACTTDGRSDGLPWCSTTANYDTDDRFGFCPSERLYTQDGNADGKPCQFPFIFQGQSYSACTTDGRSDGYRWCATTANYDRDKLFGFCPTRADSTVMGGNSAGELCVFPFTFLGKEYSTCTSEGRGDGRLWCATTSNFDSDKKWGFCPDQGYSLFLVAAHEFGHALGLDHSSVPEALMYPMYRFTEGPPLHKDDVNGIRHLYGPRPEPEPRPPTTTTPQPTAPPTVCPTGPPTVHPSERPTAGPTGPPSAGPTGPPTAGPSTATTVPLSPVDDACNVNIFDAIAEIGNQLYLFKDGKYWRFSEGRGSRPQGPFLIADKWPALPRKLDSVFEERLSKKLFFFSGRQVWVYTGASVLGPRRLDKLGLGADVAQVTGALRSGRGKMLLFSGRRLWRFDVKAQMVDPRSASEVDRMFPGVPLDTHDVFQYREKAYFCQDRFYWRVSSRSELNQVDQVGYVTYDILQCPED
Sequence of MMP7 (P09237 95-267, species assumed): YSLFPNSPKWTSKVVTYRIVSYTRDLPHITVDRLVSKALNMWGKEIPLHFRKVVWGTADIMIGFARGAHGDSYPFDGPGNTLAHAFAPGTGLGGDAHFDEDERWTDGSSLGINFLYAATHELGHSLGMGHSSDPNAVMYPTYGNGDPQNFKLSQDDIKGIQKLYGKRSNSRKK
Sequence of MMP3 (P08254 100-477, species assumed): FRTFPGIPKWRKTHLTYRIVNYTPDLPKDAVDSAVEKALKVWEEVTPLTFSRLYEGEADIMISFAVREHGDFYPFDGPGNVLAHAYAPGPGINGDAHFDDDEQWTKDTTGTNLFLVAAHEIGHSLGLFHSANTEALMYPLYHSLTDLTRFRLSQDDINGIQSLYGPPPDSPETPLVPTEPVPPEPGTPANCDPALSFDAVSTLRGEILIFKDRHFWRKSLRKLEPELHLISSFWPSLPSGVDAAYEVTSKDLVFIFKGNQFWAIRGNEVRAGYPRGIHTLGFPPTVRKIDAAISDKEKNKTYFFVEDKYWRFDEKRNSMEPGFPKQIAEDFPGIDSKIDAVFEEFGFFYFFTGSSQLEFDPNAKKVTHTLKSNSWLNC
Sequence of MMP12 (P39900 106-470, species assumed): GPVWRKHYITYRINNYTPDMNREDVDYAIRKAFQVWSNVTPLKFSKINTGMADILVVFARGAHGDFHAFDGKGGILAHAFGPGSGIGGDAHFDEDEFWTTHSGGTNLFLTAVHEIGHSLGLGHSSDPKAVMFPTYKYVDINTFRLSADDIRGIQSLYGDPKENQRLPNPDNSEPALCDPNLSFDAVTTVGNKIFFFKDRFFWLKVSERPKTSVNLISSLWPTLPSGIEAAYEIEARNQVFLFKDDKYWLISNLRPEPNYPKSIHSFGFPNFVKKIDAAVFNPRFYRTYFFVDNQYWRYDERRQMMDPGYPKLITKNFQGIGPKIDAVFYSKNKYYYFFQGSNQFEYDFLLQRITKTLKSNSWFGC
Sequence of MMP8 (P22894 101-467, species assumed): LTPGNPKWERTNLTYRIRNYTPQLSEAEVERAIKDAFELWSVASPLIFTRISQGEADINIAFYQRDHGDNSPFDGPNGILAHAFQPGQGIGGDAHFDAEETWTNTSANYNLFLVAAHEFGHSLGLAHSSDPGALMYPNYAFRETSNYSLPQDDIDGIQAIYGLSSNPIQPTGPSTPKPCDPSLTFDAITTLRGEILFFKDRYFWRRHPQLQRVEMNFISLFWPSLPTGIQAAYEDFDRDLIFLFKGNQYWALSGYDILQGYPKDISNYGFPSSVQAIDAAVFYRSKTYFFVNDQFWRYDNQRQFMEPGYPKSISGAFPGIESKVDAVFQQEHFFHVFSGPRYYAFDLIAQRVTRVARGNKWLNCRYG
Sequence of MMP1 (P03956 100-469, species assumed): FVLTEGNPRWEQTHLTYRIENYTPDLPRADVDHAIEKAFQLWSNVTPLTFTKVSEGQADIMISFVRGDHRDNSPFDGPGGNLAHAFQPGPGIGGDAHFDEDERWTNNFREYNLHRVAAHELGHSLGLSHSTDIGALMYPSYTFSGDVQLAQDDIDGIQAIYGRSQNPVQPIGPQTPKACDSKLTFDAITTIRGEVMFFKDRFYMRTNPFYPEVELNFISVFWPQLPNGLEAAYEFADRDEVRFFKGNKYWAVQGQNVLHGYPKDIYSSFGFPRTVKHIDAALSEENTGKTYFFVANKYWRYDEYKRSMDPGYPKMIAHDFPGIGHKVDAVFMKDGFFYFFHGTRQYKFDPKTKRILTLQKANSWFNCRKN
Sequence of ADAMTS-4 (O75173 213-837, species assumed): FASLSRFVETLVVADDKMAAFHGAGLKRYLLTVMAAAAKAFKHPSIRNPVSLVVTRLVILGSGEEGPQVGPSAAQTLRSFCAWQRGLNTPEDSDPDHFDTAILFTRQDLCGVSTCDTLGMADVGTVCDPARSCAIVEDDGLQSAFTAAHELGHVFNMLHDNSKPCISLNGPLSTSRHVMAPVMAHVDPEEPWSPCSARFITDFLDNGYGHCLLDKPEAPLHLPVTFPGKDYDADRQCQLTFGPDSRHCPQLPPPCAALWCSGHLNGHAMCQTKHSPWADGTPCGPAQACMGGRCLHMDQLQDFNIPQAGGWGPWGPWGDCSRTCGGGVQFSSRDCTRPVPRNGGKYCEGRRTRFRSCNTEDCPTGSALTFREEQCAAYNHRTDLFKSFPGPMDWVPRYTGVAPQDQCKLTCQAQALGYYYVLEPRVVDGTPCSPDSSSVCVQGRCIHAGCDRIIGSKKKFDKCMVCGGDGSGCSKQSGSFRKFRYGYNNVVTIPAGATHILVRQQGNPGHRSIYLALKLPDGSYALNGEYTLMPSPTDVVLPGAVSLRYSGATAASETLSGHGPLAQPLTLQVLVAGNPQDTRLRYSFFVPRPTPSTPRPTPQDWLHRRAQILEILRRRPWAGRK
Sequence of MMP-2 (P08253 110-660): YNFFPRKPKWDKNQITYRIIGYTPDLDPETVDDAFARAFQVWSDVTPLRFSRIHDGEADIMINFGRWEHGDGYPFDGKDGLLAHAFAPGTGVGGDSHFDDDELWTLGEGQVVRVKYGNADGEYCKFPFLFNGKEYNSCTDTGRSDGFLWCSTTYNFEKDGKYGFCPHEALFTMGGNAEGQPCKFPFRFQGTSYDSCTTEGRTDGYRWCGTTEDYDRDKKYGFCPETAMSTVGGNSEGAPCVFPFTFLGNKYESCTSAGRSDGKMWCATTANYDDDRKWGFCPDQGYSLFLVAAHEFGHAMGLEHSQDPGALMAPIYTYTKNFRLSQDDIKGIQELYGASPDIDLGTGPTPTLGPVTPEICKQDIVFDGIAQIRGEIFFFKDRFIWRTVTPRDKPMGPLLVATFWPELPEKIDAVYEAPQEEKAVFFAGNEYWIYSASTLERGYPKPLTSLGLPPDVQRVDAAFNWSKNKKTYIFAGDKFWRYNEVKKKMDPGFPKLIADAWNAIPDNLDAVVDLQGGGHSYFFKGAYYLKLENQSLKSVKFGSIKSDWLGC
T1 sequence (A0A8I3Q3A2 1-992): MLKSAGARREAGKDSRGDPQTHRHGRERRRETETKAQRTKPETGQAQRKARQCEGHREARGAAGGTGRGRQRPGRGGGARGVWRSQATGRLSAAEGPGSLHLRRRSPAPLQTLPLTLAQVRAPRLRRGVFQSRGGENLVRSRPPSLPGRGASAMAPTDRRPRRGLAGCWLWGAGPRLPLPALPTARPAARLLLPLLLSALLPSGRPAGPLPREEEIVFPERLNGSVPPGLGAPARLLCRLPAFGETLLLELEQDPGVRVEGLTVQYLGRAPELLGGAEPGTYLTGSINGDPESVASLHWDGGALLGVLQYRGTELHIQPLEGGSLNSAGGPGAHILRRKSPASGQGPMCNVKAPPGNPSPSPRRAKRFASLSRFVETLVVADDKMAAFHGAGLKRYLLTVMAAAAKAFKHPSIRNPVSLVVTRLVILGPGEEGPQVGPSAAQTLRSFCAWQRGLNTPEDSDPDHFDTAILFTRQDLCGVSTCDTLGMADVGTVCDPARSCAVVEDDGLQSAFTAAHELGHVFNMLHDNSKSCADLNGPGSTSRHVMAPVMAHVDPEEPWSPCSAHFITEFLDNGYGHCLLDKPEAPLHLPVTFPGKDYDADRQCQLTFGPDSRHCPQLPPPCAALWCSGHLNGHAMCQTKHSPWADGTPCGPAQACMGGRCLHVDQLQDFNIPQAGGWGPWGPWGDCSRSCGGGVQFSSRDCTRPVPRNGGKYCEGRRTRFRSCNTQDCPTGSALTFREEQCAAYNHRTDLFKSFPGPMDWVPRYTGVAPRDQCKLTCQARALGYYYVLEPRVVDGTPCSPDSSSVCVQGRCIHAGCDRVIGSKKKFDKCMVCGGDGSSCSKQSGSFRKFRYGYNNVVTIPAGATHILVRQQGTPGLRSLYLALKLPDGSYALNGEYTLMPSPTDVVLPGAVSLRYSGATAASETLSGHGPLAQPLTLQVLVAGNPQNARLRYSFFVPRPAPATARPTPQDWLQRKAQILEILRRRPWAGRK

Structure (SMILES)	pIC50 (MMP13)	pIC50 [1]	pIC50 (MMP3)	pIC50 (MMP9)	pIC50 (MMP12)	pIC50 (MMP-2)	pIC50 (MMP7)	pIC50 (MMP8)	pIC50 (ADAMTS-4)	pIC50 (MMP1)	further results
CC[C@H](Cc1ccc(C(F)(F)F)cc1)C(=O)NC[C@@]1(C2CC2)NC(=O)NC1=O [Example 2, (2R)—N-[[(4R)-4-cyclopropyl-2,5-dioxo-imidazolidin-4-yl]methyl]-2-[[4-(trifluoromethyl)phenyl]methyl]butanamide]	5.38	5.10	4.81	6.36	7.59	6.15	< 4.00	> 8.29	8.70	6.05	pIC50 (dog ADAMTS-4 [3]): 9.00; plasma concentrations versus dosage ([4]; 0.1, 1, 10 mg/kg daily oral): increase with dosage in a sub-proportional manner; steady-state trough concentrations ([4]; daily oral dosing): rapidly achieved; mean Day 21 inhibition of plasma ARGN concentrations (plasma ARGN; 0.1 mg/kg daily oral): 33.8%; mean Day 21 inhibition of plasma ARGN concentrations (plasma ARGN; 1 mg/kg daily oral): 70.7%; mean Day 21 inhibition of plasma ARGN concentrations (plasma ARGN; 10 mg/kg daily oral): 80.3%; pIC50 (dog ADAMTS-4 [5]): 6.49
O=C1NC(=O)[C@](CNC(=O)[C@@H](Cc2ccc(C(F)(F)F)cc2)C2CC2)(C2CC2)N1 [Example 3, (2S)-2-cyclopropyl-N-[[(4R)-4-cyclopropyl-2,5-dioxo-imidazolidin-4-yl]methyl]-3-[4-(trifluoromethyl)phenyl]propanamide]	4.33	4.30	4.00	< 4.00	6.57	4.46	< 4.00	6.09	–	4.41	–
CC(C)[C@H](Cc1ccc(C(F)(F)F)cc1)C(=O)NC[C@@]1(C2CC2)NC(=O)NC1=O [Example 4, (2S)—N-[[(4R)-4-cyclopropyl-2,5-dioxo-imidazolidin-4-yl]methyl]-3-methyl-2-[[4-(trifluoromethyl)phenyl]methyl]butanamide]	< 4.00	< 4.00	< 4.00	< 4.00	5.47	< 4.00	< 4.00	5.28	7.85	4.25	–

The next lines start with results.

pIC50 (MMP13)	pIC50 [1]	pIC50 (MMP3)	pIC50 (MMP9)	pIC50 (MMP12)	pIC50 (MMP-2)	pIC50 (MMP7)	pIC50 (MMP8)	pIC50 (ADAMTS-4)	pIC50 (MMP1)	Structure (SMILES)	further results
5.95	5.41	5.55	4.92	8.05	5.76	< 4.00	7.75	–	–	C[C@H](Cc1ccc(C(F)(F)F)cc1)C(=O)NC[C@@]1(C2CC2)NC(=O)NC1=O [Example 1, (2R)—N-[[(4R)-4-cyclopropyl-2,5-dioxo-imidazolidin-4-yl]methyl]-2-methyl-3-[4-(trifluoromethyl)phenyl]propanamide]	% Inhibition ([2]; 10 MPK oral): 41.3%; MIA (aggrecan fragments in synovial lavage of MIA knee) ([2]; 10 MPK oral): 15.87; % Inhibition ([2]; 30 MPK oral): 48.2%; MIA (aggrecan fragments in synovial lavage of MIA knee) ([2]; 30 MPK oral): 14.00; % Inhibition ([2]; 100 MPK oral): 70.2%; MIA (aggrecan fragments in synovial lavage of MIA knee) ([2]; 100 MPK oral): 8.06
5.32	4.83	4.88	5.12	7.15	5.33	< 4.00	7.27	8.15	5.34	CC(C)(Cc1ccc(C(F)(F)F)cc1)C(=O)NC[C@@]1(C2CC2)NC(=O)NC1=O [Example 5, N-[[(4R)-4-cyclopropyl-2,5-dioxoimidazolidin-4-yl]methyl]-2,2-dimethyl-3-[4-(trifluoromethyl)phenyl]propanamide]	–
